{
  "source": "paper PMC5441580",
  "about": "“GPR40 partial agonist MK-2305 lower fasting glucose in the Goto Kakizaki rat via suppression of endogenous glucose production” (PLoS ONE, 2017)",
  "key": {"[1]": {"biological_target": "T1, rat GPR40 (FFAR1) (Rattus norvegicus, UniProt Q8K3T4)", "T1 construct": "expressed in transfected cells", "T1 sequence (Q8K3T4 whole entry)": "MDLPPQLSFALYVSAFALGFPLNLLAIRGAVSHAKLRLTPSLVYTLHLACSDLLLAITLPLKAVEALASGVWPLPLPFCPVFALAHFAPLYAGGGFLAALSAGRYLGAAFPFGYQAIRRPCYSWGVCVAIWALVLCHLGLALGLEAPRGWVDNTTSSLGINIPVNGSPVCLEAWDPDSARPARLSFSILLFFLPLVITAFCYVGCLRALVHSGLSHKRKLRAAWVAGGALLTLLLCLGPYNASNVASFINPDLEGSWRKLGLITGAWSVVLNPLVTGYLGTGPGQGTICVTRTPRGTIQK", "experiment": "IP1 functional assay, CHO cells stably expressing rat GPR40", "assay_type": "cell-based", "details": "for Receptor Activation (%): representative curve Fig 1B", "method": "CHO Jump-IN cells stably expressing rat GPR40 or HEK293 Jump-IN cells stably expressing rat GPR120 were cultured in DMEM media supplemented with 10% dialyzed FBS, non-essential amino acids, penicillin/streptomycin, 10 μg/ml Blasticidin S HCL and 200 or 100 μg/ml Hygromycin B, respectively (Life Technologies). Cell stocks were maintained and grown in a sub-confluent state using standard cell culture procedures. The day before the experiment, the cells were harvested with non-enzymatic cell dissociation buffer and re-suspended in DMEM supplemented as described above at 0.15 million cells per ml. […] The seeded plates were incubated overnight at 37°C in a humidified environment.\nOn the day of the experiment, the growth media was removed from the assay plate by centrifugation using a BlueCatBio BlueWasher, protocol #21 “Light Dry” and 10 μl of IP1 stimulation buffer (prepared according to the Cisbio IP-one Tb HTRF kit) is added to each well. Test compounds were dissolved and serially diluted in DMSO as 200X the final assay concentration and 50 nl of the compound dilution was acoustically added to each well of the assay plates. The plates were then incubated for 60 minutes at room temperature and 10 μl of detection buffer (prepared according to the IP-one Tb HTRF kit) is added to each well of the assay plate. The plates were then incubated for one additional hour at room temperature. […] For each assay, a standard curve plate in which IP1 is titrated is also included. […] The % activation is then plotted versus the concentration of test compound and the dose response curve fitted to a standard 4-paramater non-linear regression model using a custom in-house developed software package. Maximal % activation and EC50 are then determined for each test compound."}, "[2]": {"biological_target": "T2, human GPR41 (FFAR3) (Homo sapiens, UniProt O14843)", "T2 construct": "expressed in transfected cells", "T2 sequence (O14843 1-346)": "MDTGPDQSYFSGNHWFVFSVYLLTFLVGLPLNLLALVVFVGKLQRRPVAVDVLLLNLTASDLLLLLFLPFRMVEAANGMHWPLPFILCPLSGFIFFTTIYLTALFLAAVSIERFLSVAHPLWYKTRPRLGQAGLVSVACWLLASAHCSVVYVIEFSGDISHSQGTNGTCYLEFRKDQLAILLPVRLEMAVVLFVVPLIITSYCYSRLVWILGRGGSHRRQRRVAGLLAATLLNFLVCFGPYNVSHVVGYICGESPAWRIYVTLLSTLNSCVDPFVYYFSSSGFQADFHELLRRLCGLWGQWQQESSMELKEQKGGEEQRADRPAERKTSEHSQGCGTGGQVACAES", "experiment": "cAMP (LANCE) functional assay, CHO cells expressing human GPR41", "assay_type": "cell-based", "method": "CHO cells stably expressing human GPR41 or human GPR43 were harvested with non-enzymatic cell dissociation buffer and re-suspended in LANCE stimulation buffer (prepared as described by PE) at 0.25 million cells per ml (3.3 million cells per ml for GPR43) and 6 μl was then plated into each well of a 384-well Culturplate. Compounds were serially diluted in DMSO and then diluted further into stimulation buffer containing 2 μM forskolin (Sigma) at 2-times final concentration in the assay. 6 μl of the diluted compounds were then added to the assay plate and the plate incubated for 60 mins at room temperature. After the incubation, 12 μl of detection reagent (prepared as described by PE) was added to each well and the plates incubated one additional hour at room temperature. After the final incubation, the plates were read in a Perkin Elmer Envision reader with a method designed for Time-resolved fluorescence (TRF) assays (340 nm excitation, dual emission 615 and 655 nm). For each assay, a cAMP standard curve plate was also included. All fluorescent readings (using the 655/615 nm ratio) were converted to cAMP concentration using the cAMP standard curve and the percent activity at each concentration of test compound was determined using 0% activation (basal activity) determined in those wells containing DMSO alone, while 100% activity was determined in wells containing a concentration of agonist know to maximally activate the receptor."}, "[3]": {"tested_on": "perfused db/db mouse livers", "experiment": "isolated perfused liver study, 13C NMR, [2-13C] pyruvate", "method": "To evaluate whether GPR40 partial agonist treatment produced a direct effect on hepatic glucose production, we performed isolated perfused liver studies with ^13C NMR spectroscopy in which GPR40 agonists were dosed directly to the liver ex vivo. Mouse livers were chosen instead of rat livers due to size restrictions of the perfused liver apparatus. […] A detailed description of the perfused liver technique can be found elsewhere. Briefly, db/db mice were anesthetized (Nembutal IP, 100 mg/kg), the portal vein was cannulated and tied off, and the liver was excised and perfused with a pre-oxygenated Krebs-bicarbonate buffered solution. The liver was then placed into a 20 mm NMR tube and the gluconeogenic substrate [2-^13C] pyruvate (10 mM) was added to the perfusate plus either MK-2305 (10 μM) or vehicle (0.1% DMSO). […] These NMR signals were then converted to absolute units (μmoles) by comparison to ^13C NMR spectra of standard solutions acquired under identical conditions. Additional correction factors were included for ^13C-glycogen and ^13C-glucose to account for the fact that position 2 in pyruvate can end up at position 1, 2, 5, or 6 in glucose/glycogen due to the fumarase and triose phosphate isomerase reactions. The slope of each signal versus time was then used to calculate the following fluxes: glucose production, glycogen synthesis, and lactate production."}, "[4]": {"details": "perfused db/db mouse livers, 10 mg/kg, title: 10 M, individual livers"}},
  "note": "Several values for one entry are separate records, joined by “and”; a condition that tells them apart may be missing. Equal entries are not always repeated.",
  "data": [
    {"smiles": "O=C1NC(=O)C(C2CCOc3cc(Oc4ccc(C(F)(F)F)cc4Cl)ccc32)S1", "note": "(centres unmarked) [MK-2305]", "values": [
      {"measurement": "selectivity for activation of rat GPR40 vs. GPR120, GPR41, GPR43, PPARα, PPARδ, PPARγ", "setting": "[1]", "value": "highly selective"},
      {"measurement": "Receptor Activation (%)", "setting": "[1]; Concentration 2.00E-06 M", "value": 154, "unit": "%"},
      {"measurement": "Receptor Activation (%)", "setting": "[1]; Concentration 2.00E-07 M", "value": 169, "unit": "%"},
      {"measurement": "Receptor Activation (%)", "setting": "[1]; Concentration 2.00E-08 M", "value": 136, "unit": "%"},
      {"measurement": "Receptor Activation (%)", "setting": "[1]; Concentration 2.00E-09 M", "value": 35, "unit": "%"},
      {"measurement": "Receptor Activation (%)", "setting": "[1]; Concentration 2.00E-10 M", "value": 5.69, "unit": "%"},
      {"measurement": "Receptor Activation (%)", "setting": "[1]; Concentration 6.00E-07 M", "value": 163, "unit": "%"},
      {"measurement": "Receptor Activation (%)", "setting": "[1]; Concentration 6.00E-08 M", "value": 133, "unit": "%"},
      {"measurement": "Receptor Activation (%)", "setting": "[1]; Concentration 6.00E-09 M", "value": 74, "unit": "%"},
      {"measurement": "Receptor Activation (%)", "setting": "[1]; Concentration 6.00E-10 M", "value": 16, "unit": "%"},
      {"measurement": "Receptor Activation (%)", "setting": "[1]; Concentration 6.00E-11 M", "value": -6, "unit": "%"},
      {"measurement": "EC50", "setting": "[1]; IP1 accumulation, CHO cells expressing rat GPR40, mean ± SD, N = 29", "value": "0.006 ± 0.0029", "unit": "µM"},
      {"measurement": "% Activation", "setting": "[1]; individual experiments (raw data of Table 1)", "value": "118% and 159% and 181% and 151% and 130% and 184% and 179% and 195% and 135% and 146% and 161% and 144% and 191% and 182% and 204% and 258% and 168% and 171% and 187% and 162% and 170% and 165% and 199% and 155% and 137% and 160% and 91%"},
      {"measurement": "% Activation", "setting": "[1]; maximal activation, percentage of the control response of an in-house partial agonist, mean ± SD", "value": "166% and 166 ± 31^1%"},
      {"measurement": "% Activation", "setting": "[2]; @ 25 μM", "value": "85 @ 25 μM % and 85%"},
      {"measurement": "% Effect", "setting": "[2]; Dose 1.267 nM", "value": -32, "unit": "%"},
      {"measurement": "% Effect", "setting": "[2]; Dose 3.801 nM", "value": 0.634, "unit": "%"},
      {"measurement": "% Effect", "setting": "[2]; Dose 34.208 nM", "value": -2.75, "unit": "%"},
      {"measurement": "% Effect", "setting": "[2]; Dose 102.624 nM", "value": -4.7, "unit": "%"},
      {"measurement": "% Effect", "setting": "[2]; Dose 307.872 nM", "value": -36, "unit": "%"},
      {"measurement": "% Effect", "setting": "[2]; Dose 923.617 nM", "value": -18, "unit": "%"},
      {"measurement": "% Effect", "setting": "[2]; Dose 2770.85 nM", "value": -0.143, "unit": "%"},
      {"measurement": "% Effect", "setting": "[2]; Dose 8312.55 nM", "value": 50, "unit": "%"},
      {"measurement": "% Effect", "setting": "[2]; Dose 24938 nM", "value": 85, "unit": "%"},
      {"measurement": "EC50", "setting": "[2]; cAMP, CHO cells expressing human GPR41", "value": 12.7, "unit": "µM"},
      {"measurement": "effect on conversion of [2-13C] pyruvate to 13C-glucose, 13C-glycogen, or 13C-lactate", "setting": "[3]; 10 μM, perfused db/db mouse liver", "value": "no effects"},
      {"measurement": "Flux, conversion of [2-13C] pyruvate to 13C-glycogen", "setting": "[3]; [4]", "value": "0.1121 umoles pyr /g liver*min and 0.1693 umoles pyr /g liver*min and 0.0485 umoles pyr /g liver*min and 0.07554 umoles pyr /g liver*min"},
      {"measurement": "Flux, conversion of [2-13C] pyruvate to 13C-lactate", "setting": "[3]; [4]", "value": "1.604 umoles pyr /g liver*min and 1.499 umoles pyr /g liver*min and 1.317 umoles pyr /g liver*min and 0.5832 umoles pyr /g liver*min"},
      {"measurement": "Flux, conversion of [2-13C] pyruvate to 13C-glucose", "setting": "[3]; perfused db/db mouse livers, MK-2305 10 μM in perfusate, individual livers", "value": "0.9558 umoles pyr /g liver*min and 1.314 umoles pyr /g liver*min and 1.287 umoles pyr /g liver*min and 0.8408 umoles pyr /g liver*min"}
    ]}
  ]
}
